Data published in patent publication US8163709B2, “TAK1-D mediated induction of cell death in human cancer cells by specific sequence short double-stranded RNAS” (Board of Regents of the University of Texas System, priority 2008, dated 2012).
Entries after “also recorded” stand apart in the source; their conditions may differ.

Assays:
TAK1-D [1] = target: T1, TAK1-D (Homo sapiens, UniProt O43318); assay: TAK1-D autophosphorylation on T184/T187 in H460 cells (Western blot, phospho-specific antibody); format: cell-based; parameters: endogenous in cells; host or cells: NCI-H460; conditions: for activating autophosphorylation (activation) of TAK1-D on T184 and T187: H460 cells, RNA transfected (20 nM), Western blot
T1 sequence (O43318 1-491 isoform O43318-4): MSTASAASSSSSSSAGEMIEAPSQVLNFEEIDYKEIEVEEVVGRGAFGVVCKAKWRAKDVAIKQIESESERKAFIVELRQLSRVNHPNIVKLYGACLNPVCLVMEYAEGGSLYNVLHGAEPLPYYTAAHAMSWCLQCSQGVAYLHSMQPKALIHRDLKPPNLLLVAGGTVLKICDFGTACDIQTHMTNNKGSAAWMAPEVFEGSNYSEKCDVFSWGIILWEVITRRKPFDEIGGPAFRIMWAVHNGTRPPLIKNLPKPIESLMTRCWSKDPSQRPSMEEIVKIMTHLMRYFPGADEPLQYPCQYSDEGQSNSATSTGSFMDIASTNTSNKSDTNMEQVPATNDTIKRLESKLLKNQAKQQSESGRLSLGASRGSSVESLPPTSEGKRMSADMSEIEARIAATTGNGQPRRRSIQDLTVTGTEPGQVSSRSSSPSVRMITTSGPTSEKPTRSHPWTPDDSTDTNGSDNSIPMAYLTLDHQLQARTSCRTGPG
Protocol: In an effort to identify the MAPKKK responsible for the activation of the p38 MAP kinase and SAPK/JNK pathway, several of these kinases were screened for siRNA si5 mediated activation.
Immunoblot analysis. Western blotting was performed exactly as described previously (Kodym et al., 2008b). In addition to the primary antibodies previously mentioned (Kodym et al., 2008b) the following antibodies were used: S6 ribosomal protein (Cell Signaling #2217), DPM1 (Santa Cruz #sc-15836, Santa Cruz, Calif., USA), and Histone H3 (Cell Signaling #9715).

TAK1-D [2] = target: T1, TAK1-D; assay: Binding of radiolabeled siRNAs to immobilized FLAG-TAK1-D; parameters: made in house; conditions: kinase assay buffer conditions, 3 experiments
From the text: (§1) FIGS. 2A-C: Effect of dsRNAs on the activity of purified recombinant TAK1-D protein. (FIG. 2A) In vitro kinase assay showing the activation of TAK1-D autophosphorylation by siRNA si5. FLAG-tagged TAK1-D and His-tagged TAB1 were coexpressed in Hela cells and purified by immunoprecipitation with anti FLAG antibody. […] Error bars indicate the standard error of 3 experiments.
(§2) To verify if siRNA si5 indeed interacts with TAK1-D directly, the activation of the kinase was studied in vitro using purified proteins. […] To test whether the increased activation of the TAK1-D/TAB1 complex by siRNA si5 is caused by an increased affinity of the RNA molecule to the kinase, binding of radiolabeled siRNAs to immunoprecipitated FLAG tagged TAK1-D was measured. In FIG. 2C the amount of RNA bound to immobilized FLAG-TAK1-D is given.

cdc25B = assay: Nuclear cdc25B level in NCI-H460 cells; format: cell-based, human
From the text: P38 MAPK as well as SPK/JNK have a large number of downstream targets. Amongst these, the phosphorylation of the cell cycle control phosphatase cdc25 (Bulavin et al., 2001; Goss et al., 2003) are of particular interest, as these phosphorylations have the potential to transduce an immediate and direct effect of TAK1-D activation to the cell cycle. […] In contrast, both cdc25A and cdc25B were found in the nucleus and therefore capable of cell cycle control. […] The occurrence of this shifted form of cdc25A is indicative of phosphorylation and inactivation of cdc25A (Zhao et al., 2002). The amount of cdc25B in the nucleus decreases with kinetics similar to the phosphorylation of cdc25A, indicative for a phosphorylation dependent translocation and proteolytic digestion of cdc25B (Cans et al., 1999). Therefore, it can be concluded that activation of TAK1-D in NCI-H460 cells leads to an inactivation of cdc25A and cdc25B through p38 MAPK and SAPK/JNK mediated phosphorylation and proteolytic destruction.

SAPK/JNK pathway = assay: Activation of the SAPK/JNK pathway in H460 cells (Western blot); format: cell-based, human; conditions: for activation of the SAPK/JNK pathway (phosphorylation of MKK4, SAPK/JNK): H460 cells, 20 nM RNA, 2-6 h
TAK1-D/TAB1 complex = target: T2, TAK1-D/TAB1 complex (Homo sapiens, UniProt O43318); assay: In vitro kinase assay with purified FLAG-TAK1-D/His-TAB1; format: biochemical; conditions: purified proteins, cell-free
T2 construct: made in house; host or cells: HeLa cells
T2 sequence (O43318 1-491 isoform O43318-4): T1 sequence (O43318 1-491 isoform O43318-4)
T2 sequence (Q15750 1-504 partner): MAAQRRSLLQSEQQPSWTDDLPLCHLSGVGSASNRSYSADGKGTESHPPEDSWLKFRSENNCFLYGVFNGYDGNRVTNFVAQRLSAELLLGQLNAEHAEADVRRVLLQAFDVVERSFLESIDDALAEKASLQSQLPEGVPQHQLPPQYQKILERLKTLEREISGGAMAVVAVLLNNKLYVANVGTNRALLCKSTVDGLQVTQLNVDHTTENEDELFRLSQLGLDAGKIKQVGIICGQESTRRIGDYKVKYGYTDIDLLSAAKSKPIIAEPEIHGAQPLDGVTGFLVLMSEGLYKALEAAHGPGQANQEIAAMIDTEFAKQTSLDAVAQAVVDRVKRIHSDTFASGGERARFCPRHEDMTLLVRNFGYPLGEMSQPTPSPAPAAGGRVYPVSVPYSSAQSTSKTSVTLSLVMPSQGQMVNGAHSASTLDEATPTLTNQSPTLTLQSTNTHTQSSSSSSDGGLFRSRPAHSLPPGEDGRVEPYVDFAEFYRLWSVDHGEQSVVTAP
From the text: as §1, §2
FLAG-tagged TAK1-D and HIS-tagged TAB1 were co-expressed in HeLa cells and the proteins were purified through immunoprecipitation with an anti-FLAG antibody.

Row | Substance | activating autophosphorylation (activation) of TAK1-D on T184 and T187 (TAK1-D [1]) | autophosphorylation signal of Tak1-D six hours after addition (TAK1-D [1]; NCI-H460 cells, 6 h) | amount of RNA bound to immobilized FLAG-TAK1-D (TAK1-D [2]) | amount of cdc25B in the nucleus (cdc25B) | activation of the SAPK/JNK pathway (phosphorylation of MKK4, SAPK/JNK) (SAPK/JNK pathway) | activation of the SAPK/JNK pathway (phosphorylation of MKK4, SAPK/JNK) (SAPK/JNK pathway; listed as Si5) | activating phosphorylation of SAPK/JNK in TAK1-D/K63W transfected cells (SAPK/JNK pathway; H460 stably transfected with K63W vs wt and vector, 4 h) | autophosphorylation activity of the TAK1-D/TAB1 complex (TAK1-D/TAB1 complex)
1 | si5: 21-mer siRNA against TLK1 mRNA: GGCUUUUGACCUUUAUGAAtt (SEQ ID NO: 2) / ttCCGAAAACUGGAAAUACUU (SEQ ID NO: 3) (sense GGCUUUUGACCUUUAUGAATT; antisense TTCCGAAAACUGGAAAUACUU; chemistry not given here; one strand is listed 3' to 5') | a si5 induced signal was detected; also recorded: able to activate Tak1-D; also recorded: leads to phosphorylation of TAK1-D | significantly stronger autophosphorylation signal | significantly greater; also recorded: increased binding | decreases | activation of the stress-activated protein kinase jun-amino-terminal kinase (SAPK/JNK) pathway | phosphorylation and activation of MKK3/6 as well as MKK4 | very significant reduction; also recorded: significantly reduced | increase in autophosphorylation activity; also recorded: increased the autophosphorylation activity
2 | si6: control 21-mer siRNA against TLK1 mRNA: GGGUGGAAAUGGCUCAAGUtt (SEQ ID NO: 4) / gtCCCACCUUUACCGAGUUCA (SEQ ID NO: 5) (sense GGGUGGAAAUGGCUCAAGUTT; antisense GTCCCACCUUUACCGAGUUCA; chemistry not given here; one strand is listed 3' to 5') [reference compound] | not triggered | – | – | – | had no effect; also recorded: does not occur; also recorded: No activation | – | – | not
